From paper PMC8835475, “Salviolone from Salvia miltiorrhiza Roots Impairs Cell Cycle Progression, Colony Formation, and Metalloproteinase-2 Activity in A375 Melanoma Cells: Involvement of P21(Cip1/Waf1) Expression and STAT3 Phosphorylation” (International Journal of Molecular Sciences, 2022)

Tests used:
[1] = system: A375 melanoma cell line; experiment: SRB cell viability assay in A375 cells; assay type: cell-based, human; settings: for inhibition of melanoma cell viability: A375, 20 µM; for inhibition of melanoma cell viability / EC50: 72 h; for viability reduction in melanoma cells / EC50: A375, SRB; for viability reduction in melanoma cells: 40–60 µM; for EC50: Homo sapiens, A-375, read-out: half maximal effective concentration (EC50) able to reduce cell viability
Experimental: In preliminary experiments, the evaluation of cell viability at different time after compound administration was carried out with sulforhodamine B (SRB) assay. Indeed, after 24-, 48-, and 72-h treatment, an evident time dependence in the inhibition of cell growth was registered (data not shown). Thus, to evaluate A375 and MeWo cell viability, we decided to perform further SRB experiments with each compound only after 72 h.
(§1) Human MeWo (HTB-65) and A375 (CRL-1619) melanoma cell lines as well as the normal human epidermal melanocyte (NHEM) (PCS-200-013) cell line (ATCC, Manassas, VA, USA) were cultured at 37 °C under 5% CO2 in a humidified atmosphere. Roswell Park Memorial Institute 1640 medium (RPMI, Gibco, Ref.21875, Thermo Scientific, Waltham, MA, USA) was used to culture MeWo cells, while Dulbecco’s Modified Eagle Medium (DMEM, Gibco, Ref. 61965, Thermo Scientific, Waltham, MA, USA) was used for A375 and NHEM cell lines. The culture media were supplemented with 10% fetal bovine serum (FBS, Gibco, Thermo Scientific, Waltham, MA, USA) plus 1% Antibiotic Antimycotic Solution (Gibco, Thermo Scientific). The MEK1 inhibitor U0126 (CAY-70970) and the PI3K inhibitor LY294002 (CAY-70920) were provided by Cayman Chemical, Ann Arbor, MI, USA.
(§2) Melanoma MeWo and A375 cells or NHEM were seeded in 96-well plates (5.0 × 10^3 cells/well for MeWo cells and 2.9 × 10^3 cells/well for A375 or NHEM). After 24-h culture, the cells were treated with different concentrations of compounds 1–7. After 72-h treatment, the cells were fixed by adding 25 µL/well of 50% (w/v) TCA directly into the culture medium. The plates were incubated at 4 °C for 1 h, washed four times with ddH2O, and dried at RT. Staining was performed by adding 50 µL/well of 0.04% (w/v) sulforhodamine B (SRB) sodium salt solution (Sigma-Aldrich, Milan, Italy). After 1-h incubation at RT, the plates were rinsed with 1% HAc and air-dried. SRB was solubilized in a 10 mM Tris-base solution pH 10.5 and Abs492 measured in the plate reader TECAN NanoQuant Infinite M200 Pro (Tecan Group Ltd., Männedorf, Switzerland). Six replicates for each condition/data point were performed.

[2] = system: normal human epithelial melanocyte (NHEM) cell line; experiment: SRB cell viability assay in NHEM cells; assay type: cell-based; settings: for effect on NHEM viability: 10–20 µM; for reduction of NHEM viability: 40–60 µM
Experimental: as §1, §2

[3] = system: P53; experiment: Immunoblot of P53 in A375 cells; assay type: cell-based, human; settings: A375, 20 µM, 48 and 72 h
Experimental: A375 cells were seeded in 6 cm Petri dishes (190 300 cell/dish) and treated with different compounds at 10 or 20 μM. After 48- or 72-h treatment, the cells were scraped using warm 1× sample buffer (2% SDS, 10% glycerol, 50 mM Tris-HCl, 1.75% β-mercaptoethanol, and bromophenol blue) and boiled at 99 °C for 10 min. Total protein extracts were kept at −80 °C until use.
Protein extracts were analyzed with a 7.5 or 10% polyacrylamide SDS-PAGE and transferred to a polyvinylidene difluoride membrane (PVDF, Thermo Fisher Scientific, Waltham, MA, USA). The membranes were blocked at RT for 1 h with TBST buffer (10 mM Tris-HCl pH 7.5, 100 mM NaCl, 0.1% Tween20) containing 4% Milk (Formulat). […] Immuno-detection was carried out with an ECL kit (GE-Healthcare, Little Chalfont, UK), and the chemiluminescence signals were detected with ChemiDoc (Bio-Rad, Hercules, CA, USA).

[4] = system: MMP2 gelatinase activity; experiment: Gelatin zymography of MMP2 activity in A375 cells; assay type: cell-based, human; settings: A375, 10 and 20 µM, gel zymography
Experimental: A gel zymography assay can measure the ability of matrix metalloproteinases (MMPs) to digest their substrate gelatin present in the gel. Thus, the zymographic approach allows sensitive and quantifiable analysis of the activity of MMPs that can be recognized by their molecular weight. […] Both compounds 7 and 4 at 10 and 20 µM inhibited MMP2 gelatinase activity in the A375 melanoma cell line (Figure 6B).
A375 cells were cultured in the presence of 10 or 20 µM cryptotanshinone (4), salviolone (7), or 1 µM onconase (provided by Prof. G. Gotte), as a positive control, for 48 h and then they were serum starved for 24 h. The conditioned medium was collected and 10× concentrated with an Amicon Ultra-2 Centrifugal filter unit (Merck-Millipore, Milan, Italy). Protein concentrations were determined with Coomassie (Thermo Fisher Scientific, Waltham, MA, USA) and samples treated with a non-reducing sample buffer. To separate proteins, a 7.5% SDS-PAGE was performed. The gel contained 4 mg/mL of gelatin (Sigma-Aldrich, Milan, Italy) and was washed with 50 mM Tris-HCl pH 7.5, 5 mM CaCl2, and 1 μM ZnCl2 supplemented with 2.5% Triton X-100 (Serva Electrophoresis, Heidelberg, Germany). […] The gel was stained with 0.5% Coomassie Brilliant Blue R-250 in 20% ethanol/10% acetic acid, and the gelatinase activity was detected by evaluating the presence and intensity of clear bands on the blue background.

SMILES	inhibition of melanoma cell viability [1]	viability reduction in melanoma cells [1]	EC50 [1]	effect on NHEM viability [2]	reduction of NHEM viability [2]	P53 protein expression [3]	MMP2 gelatinase activity [4]
C[C@H]1COC2=C1C(=O)C(=O)c1c2ccc2c1CCCC2(C)C [Compound 4, cryptotanshinone]	about 50%	70–80%	~14 µM	did not affect	20%	significant increase	inhibited
Cc1cc2ccc3c(c2cc(O)c1=O)CCCC3(C)C [Compound 7, salviolone]	about 50%	70–80%	~17 µM	did not affect	20%	significant increase	inhibited
